Measured values: patent US20170050957A1, “4-AMINO-6-(HETEROCYCLIC)PICOLINATES AND 6-AMINO-2-(HETEROCYCLIC)PYRIMIDINE-4-CARBOXYLATES AND THEIR USE AS HERBICIDES” (Dow AgroSciences LLC, priority 2013, published 2017)
Like-named read-outs stand apart in the source and are kept apart here. Each block holds one molecule with its values, some of them ahead of it.

Columns and labels:
[1] = test system: Key Broadleaf Weed and Crop Species; test: Post-emergent Test II herbicidal activity (Table 15); format: in vivo; conditions: post-emergence, 336 h, 14 d; for pest or weed control at 35 g/ha: 35 g ai/ha; for pest or weed control at 70 g/ha: 70 g ai/ha; for pest or weed control at 140 g/ha: 140 g ai/ha
How it was run: (§1)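 Visual injury rating (0 = none, 100% = complete kill) made 14 d after treatment, relative to untreated plants. Compounds in an acetone/DMSO/aqueous crop-oil/surfactant spray, at top rate and serial 1/2×-1/16× rates, were applied at 187 L/ha overhead to first-second true leaf plants raised 7-21 d in greenhouse.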

[2] = test system: Key Grass and Sedge Weeds as well as Grass Crops; test: Post-emergent Test II herbicidal activity (Table 16); format: in vivo; conditions: post-emergence, 336 h, 14 days after application; for pest or weed control at 35 g/ha: 35 g ai/ha; for pest or weed control at 70 g/ha: 70 g ai/ha; for pest or weed control at 140 g/ha: 140 g ai/ha
How it was run: as §1

[3] = Abutilon theophrasti, velvetleaf (Abutilon theophrasti), read-out: Visual Growth Reduction (%) 14 Days After Application, ABUTH
[4] = Amaranthus retroflexus, redroot pigweed (Amaranthus retroflexus), read-out: Visual Growth Reduction (%) 14 Days After Application, AMARE
[5] = Brassica napus, oilseed rape, canola (Brassica napus), read-out: Visual Growth Reduction (%) 14 Days After Application, BRSNN
[6] = Chenopodium album, lambsquarters (Chenopodium album), read-out: Visual Growth Reduction (%) 14 Days After Application, CHEAL
[7] = Euphorbia heterophylla, wild poinsettia (Euphorbia heterophylla), read-out: Visual Growth Reduction (%) 14 Days After Application, EPHHL
[8] = Helianthus annuus, sunflower (Helianthus annuus), read-out: Visual Growth Reduction (%) 14 Days After Application, HELAN
[9] = Cyperus esculentus, yellow nutsedge (Cyperus esculentus), read-out: Visual Growth Reduction (%) 14 Days After Application CYPES
[10] = Echinochloa crus-galli, barnyardgrass (Echinochloa crus-galli), read-out: Visual Growth Reduction (%) 14 Days After Application ECHCG
[11] = Oryza sativa, rice (Oryza sativa), read-out: Visual Growth Reduction (%) 14 Days After Application ORYSA
[12] = Setaria faberi, giant foxtail (Setaria faberi), read-out: Visual Growth Reduction (%) 14 Days After Application SETFA
[13] = Triticum aestivum, wheat, spring (Triticum aestivum), read-out: Visual Growth Reduction (%) 14 Days After Application TRZAS
[14] = Zea mays, maize, corn (Zea mays), read-out: Visual Growth Reduction (%) 14 Days After Application ZEAMX

melting point: 125 to 127 °C
SMILES: COC(=O)c1nc(-c2ccc3sccc3c2)nc(N)c1OC [Compound 3.08]
pest or weed control at 35 g/ha [1, 3]: 0 to 29% | pest or weed control at 70 g/ha [1, 3]: 30 to 44% | pest or weed control at 140 g/ha [1, 3]: 30 to 44% | pest or weed control at 35 g/ha [1, 4]: 0 to 29% | pest or weed control at 70 g/ha [1, 4]: 30 to 44% | pest or weed control at 140 g/ha [1, 4]: 60 to 74% | pest or weed control at 35 g/ha [1, 5]: 0 to 29% | pest or weed control at 70 g/ha [1, 5]: 0 to 29% | pest or weed control at 140 g/ha [1, 5]: 30 to 44% | pest or weed control at 35 g/ha [1, 6]: 85 to 94% | pest or weed control at 70 g/ha [1, 6]: 85 to 94% | pest or weed control at 140 g/ha [1, 6]: 85 to 94% | pest or weed control at 35 g/ha [1, 7]: 60 to 74% | pest or weed control at 70 g/ha [1, 7]: 75 to 84% | pest or weed control at 140 g/ha [1, 7]: 85 to 94% | pest or weed control at 35 g/ha [1, 8]: 60 to 74% | pest or weed control at 70 g/ha [1, 8]: 75 to 84% | pest or weed control at 140 g/ha [1, 8]: 85 to 94% | pest or weed control at 35 g/ha [2, 9]: 0 to 29% | pest or weed control at 70 g/ha [2, 9]: 0 to 29% | pest or weed control at 140 g/ha [2, 9]: 30 to 44% | pest or weed control at 35 g/ha [2, 10]: 0 to 29% | pest or weed control at 70 g/ha [2, 10]: 0 to 29% | pest or weed control at 140 g/ha [2, 10]: 75 to 84% | pest or weed control at 35 g/ha [2, 11]: 0 to 29% | pest or weed control at 70 g/ha [2, 11]: 0 to 29% | pest or weed control at 140 g/ha [2, 11]: 0 to 29% | pest or weed control at 35 g/ha [2, 12]: 0 to 29% | pest or weed control at 70 g/ha [2, 12]: 0 to 29% | pest or weed control at 140 g/ha [2, 12]: 0 to 29% | pest or weed control at 35 g/ha [2, 13]: 45 to 59% | pest or weed control at 70 g/ha [2, 13]: 60 to 74% | pest or weed control at 140 g/ha [2, 13]: 60 to 74% | pest or weed control at 35 g/ha [2, 14]: 30 to 44% | pest or weed control at 70 g/ha [2, 14]: 60 to 74% | pest or weed control at 140 g/ha [2, 14]: 75 to 84%

melting point: 157 to 162 °C
SMILES: Cc1c(-c2ccc3ccsc3c2)nc(C(=O)O)c(Cl)c1N [Compound 3.19]
pest or weed control at 35 g/ha [1, 3]: 0 to 29% | pest or weed control at 70 g/ha [1, 3]: 0 to 29% | pest or weed control at 140 g/ha [1, 3]: 60 to 74% | pest or weed control at 35 g/ha [1, 4]: 60 to 74% | pest or weed control at 70 g/ha [1, 4]: 95 to 100% | pest or weed control at 140 g/ha [1, 4]: 75 to 84% | pest or weed control at 35 g/ha [1, 5]: 0 to 29% | pest or weed control at 70 g/ha [1, 5]: 0 to 29% | pest or weed control at 140 g/ha [1, 5]: 0 to 29% | pest or weed control at 35 g/ha [1, 6]: 60 to 74% | pest or weed control at 70 g/ha [1, 6]: 60 to 74% | pest or weed control at 140 g/ha [1, 6]: 75 to 84% | pest or weed control at 35 g/ha [1, 7]: 0 to 29% | pest or weed control at 70 g/ha [1, 7]: 0 to 29% | pest or weed control at 140 g/ha [1, 7]: 0 to 29% | pest or weed control at 35 g/ha [1, 8]: 85 to 94% | pest or weed control at 70 g/ha [1, 8]: 85 to 94% | pest or weed control at 140 g/ha [1, 8]: 85 to 94% | pest or weed control at 35 g/ha [2, 9]: 0 to 29% | pest or weed control at 70 g/ha [2, 9]: 0 to 29% | pest or weed control at 140 g/ha [2, 9]: 0 to 29% | pest or weed control at 35 g/ha [2, 10]: 0 to 29% | pest or weed control at 70 g/ha [2, 10]: 0 to 29% | pest or weed control at 140 g/ha [2, 10]: 0 to 29% | pest or weed control at 35 g/ha [2, 11]: 0 to 29% | pest or weed control at 70 g/ha [2, 11]: 0 to 29% | pest or weed control at 140 g/ha [2, 11]: 0 to 29% | pest or weed control at 35 g/ha [2, 12]: 0 to 29% | pest or weed control at 70 g/ha [2, 12]: 0 to 29% | pest or weed control at 140 g/ha [2, 12]: 0 to 29% | pest or weed control at 35 g/ha [2, 13]: 0 to 29% | pest or weed control at 70 g/ha [2, 13]: 0 to 29% | pest or weed control at 140 g/ha [2, 13]: 0 to 29% | pest or weed control at 35 g/ha [2, 14]: 0 to 29% | pest or weed control at 70 g/ha [2, 14]: 0 to 29% | pest or weed control at 140 g/ha [2, 14]: 0 to 29%

melting point: 137 to 139 °C
SMILES: COc1c(N)nc(-c2ccc3sccc3c2)nc1C(=O)O [Compound 3.09]
pest or weed control at 35 g/ha [1, 3]: 0 to 29% | pest or weed control at 70 g/ha [1, 3]: 0 to 29% | pest or weed control at 140 g/ha [1, 3]: 45 to 59% | pest or weed control at 35 g/ha [1, 4]: 30 to 44% | pest or weed control at 70 g/ha [1, 4]: 75 to 84% | pest or weed control at 140 g/ha [1, 4]: 85 to 94% | pest or weed control at 35 g/ha [1, 5]: 45 to 59% | pest or weed control at 70 g/ha [1, 5]: 85 to 94% | pest or weed control at 140 g/ha [1, 5]: 95 to 100% | pest or weed control at 35 g/ha [1, 6]: 85 to 94% | pest or weed control at 70 g/ha [1, 6]: 85 to 94% | pest or weed control at 140 g/ha [1, 6]: 95 to 100% | pest or weed control at 35 g/ha [1, 7]: 95 to 100% | pest or weed control at 70 g/ha [1, 7]: 95 to 100% | pest or weed control at 140 g/ha [1, 7]: 95 to 100% | pest or weed control at 35 g/ha [1, 8]: 60 to 74% | pest or weed control at 70 g/ha [1, 8]: 75 to 84% | pest or weed control at 140 g/ha [1, 8]: 85 to 94% | pest or weed control at 35 g/ha [2, 9]: 0 to 29% | pest or weed control at 70 g/ha [2, 9]: 0 to 29% | pest or weed control at 140 g/ha [2, 9]: 0 to 29% | pest or weed control at 35 g/ha [2, 10]: 85 to 94% | pest or weed control at 70 g/ha [2, 10]: 85 to 94% | pest or weed control at 140 g/ha [2, 10]: 85 to 94% | pest or weed control at 35 g/ha [2, 11]: 0 to 29% | pest or weed control at 70 g/ha [2, 11]: 0 to 29% | pest or weed control at 140 g/ha [2, 11]: 0 to 29% | pest or weed control at 35 g/ha [2, 12]: 0 to 29% | pest or weed control at 70 g/ha [2, 12]: 0 to 29% | pest or weed control at 140 g/ha [2, 12]: 0 to 29% | pest or weed control at 35 g/ha [2, 13]: 60 to 74% | pest or weed control at 70 g/ha [2, 13]: 75 to 84% | pest or weed control at 140 g/ha [2, 13]: 85 to 94% | pest or weed control at 35 g/ha [2, 14]: 60 to 74% | pest or weed control at 70 g/ha [2, 14]: 75 to 84% | pest or weed control at 140 g/ha [2, 14]: 85 to 94%
